According to ChEMBL document CHEMBL1201862, “PubChem BioAssay data set” (2004):
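Following 48 hours of exposure in 96-well plates, responses at five concentrations were used to interpolate endpoints linearly. GI50: concentration for 50% inhibition of growth.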 Activity calls are given as the source filed them. Cut-off read from the data, not from the text of the source: active = GI50 up to about 1.1 µM and inactive = higher.

What was measured:
Experiment in all cases: NCI anticancer screen, dose series, 48 h
CAKI-1 = test system: CAKI-1
CCRF-CEM = test system: CCRF-CEM
DU-145 = test system: DU-145
HCT-15 = test system: HCT-15
IGROV-1 = test system: IGROV-1
MDA-MB-231 = test system: MDA-MB-231
MDA-MB-435 = test system: MDA-MB-435
MOLT-4 = test system: MOLT-4
NCI-H226 = test system: NCI-H226
NCI-H460 = test system: NCI-H460
NCI-H522 = test system: NCI-H522
OVCAR-5 = test system: OVCAR-5
SF-295 = test system: SF-295
SK-MEL-2 = test system: SK-MEL-2
SK-MEL-5 = test system: SK-MEL-5
SNB-75 = test system: SNB-75
UO-31 = test system: UO-31
RPMI-8226 = test system: RPMI-8226
SK-MEL-28 = test system: SK-MEL-28
MDA-N = test system: MDA-N

| Compound | GI50 (CAKI-1) | GI50 (CCRF-CEM) | GI50 (DU-145) | GI50 (HCT-15) | GI50 (IGROV-1) | GI50 (MDA-MB-231) | GI50 (MDA-MB-435) | GI50 (MOLT-4) | GI50 (NCI-H226) | GI50 (NCI-H460) | GI50 (NCI-H522) | GI50 (OVCAR-5) | GI50 (SF-295) | GI50 (SK-MEL-2) | GI50 (SK-MEL-5) | GI50 (SNB-75) | GI50 (UO-31) | GI50 (RPMI-8226) | GI50 (SK-MEL-28) | GI50 (MDA-N) |
| --- | --- | --- | --- | --- | --- | --- | --- | --- | --- | --- | --- | --- | --- | --- | --- | --- | --- | --- | --- | --- |
| CC1OC(OC2C(OC(=O)[C@@H]3CC(C)(C)C[C@@H]4C5=CC[C@@H]6[C@@]7(C)C[C@H](O)[C@H](OC8OC(CO)C(O)C(O)C8O)[C@@](C)(CO)C7[C@H](O)C[C@@]6(C)[C@]5(C)C[C@@H](O)[C@H]43)OCC(O)C2O)C(O)C(O)C1O (some centres not stated) | > 15 µM (inactive) | > 15 µM (inactive) | > 15 µM (inactive) | > 15 µM | > 15 µM (inactive) | > 15 µM (inactive) | > 15 µM (inactive) | > 15 µM (inactive) | > 15 µM (inactive) | > 15 µM (inactive) | 6.12 µM (inactive) | 7.96 µM (inactive) | > 15 µM (inactive) | > 15 µM (inactive) | > 15 µM (inactive) | > 15 µM (inactive) | 6.49 µM (inactive) |  |  |  |
| CC1Nc2ccccc2NC1C=C(C#N)C#N (configuration not stated) | 14.1 µM (inactive) | 2.72 µM (inactive) |  | 17.4 µM | 18.1 µM (inactive) |  |  | 5.96 µM (inactive) | 17.3 µM (inactive) | 19.4 µM (inactive) | 10.9 µM (inactive) | 18.9 µM (inactive) | 15.5 µM (inactive) | 21.3 µM (inactive) | 17.1 µM (inactive) | 14.6 µM (inactive) | 15 µM (inactive) | 4.58 µM (inactive) | 16.6 µM (inactive) |  |
| C[C@]12CCCC(=O)C1(O)C[C@H](C(=O)O)CC2 (some centres not stated) | > 100 µM (inactive) | > 100 µM (inactive) |  | > 100 µM | > 100 µM (inactive) |  |  | > 100 µM (inactive) | > 100 µM (inactive) | > 100 µM (inactive) | > 100 µM (inactive) | > 100 µM (inactive) | > 100 µM (inactive) | > 100 µM (inactive) | > 100 µM (inactive) | > 100 µM (inactive) | > 100 µM (inactive) | > 100 µM (inactive) | > 100 µM (inactive) |  |
| COc1cccc2c1C(=O)c1c(O)c3c(c(O)c1C2=O)C[C@@](O)(C(=O)CO)CC3OC1CC(N(C)CCOCC(OC(C)=O)OC(C)=O)C(O)C(C)O1 (some centres not stated) | > 0.01 µM (active) | > 0.01 µM (active) |  |  | > 0.01 µM (active) |  |  | > 0.01 µM (active) | > 0.01 µM (active) | > 0.01 µM (active) | > 0.01 µM (active) | > 0.01 µM (active) | > 0.01 µM (active) | > 0.01 µM (active) | > 0.01 µM (active) | > 0.01 µM (active) | > 0.01 µM (active) | > 0.01 µM (active) | > 0.01 µM (active) |  |
| CC(=O)NNc1nc(C)c(C(=O)/C=C/c2ccccc2Cl)s1 | > 100 µM (inactive) | > 100 µM (inactive) |  | > 100 µM | > 100 µM (inactive) |  |  | > 100 µM (inactive) | > 100 µM (inactive) | > 100 µM (inactive) | 43.5 µM (inactive) | > 100 µM (inactive) | > 100 µM (inactive) | > 100 µM (inactive) | > 100 µM (inactive) | > 100 µM (inactive) | > 100 µM (inactive) | > 100 µM (inactive) | > 100 µM (inactive) |  |
| CC(=O)Nc1ccc(S(=O)(=O)/N=c2/sc(S(N)(=O)=O)nn2C)cc1 | > 100 µM (inactive) |  | > 100 µM (inactive) | > 100 µM |  | > 100 µM (inactive) | > 100 µM (inactive) | > 100 µM (inactive) | > 100 µM (inactive) | > 100 µM (inactive) | > 100 µM (inactive) | > 100 µM (inactive) | > 100 µM (inactive) | > 100 µM (inactive) |  | > 100 µM (inactive) | > 100 µM (inactive) | > 100 µM (inactive) | > 100 µM (inactive) |  |
| COc1cc(C2c3cc4c(cc3[C@@H](N(C)C)[C@H]3COC(=O)C23)OCO4)cc(OC)c1O (some centres not stated) | 23.7 µM (inactive) | 49.1 µM (inactive) |  | 31.1 µM | 72.1 µM (inactive) |  |  | 38.2 µM (inactive) | > 100 µM (inactive) | 31.2 µM (inactive) | 4.4 µM (inactive) | > 100 µM (inactive) | > 10 µM (inactive) | 33.4 µM (inactive) | 23.7 µM (inactive) | 93.3 µM (inactive) | > 100 µM (inactive) | 92.3 µM (inactive) | 14.5 µM (inactive) |  |
| COc1c(C)c(C/C=C(\C)CC/C=C(\C)CC/C=C(\C)CC/C=C(\C)CCC=C(C)C)c(OC)c(OC)c1OC | 81.3 µM (inactive) | 23.9 µM (inactive) | > 100 µM (inactive) | 92 µM | 26.9 µM (inactive) | 28.3 µM (inactive) | 31.1 µM (inactive) | 40.6 µM (inactive) |  | 8.81 µM (inactive) | 16 µM (inactive) | > 100 µM (inactive) | 19.9 µM (inactive) | > 100 µM (inactive) | 16.7 µM (inactive) | 43 µM (inactive) | 21.6 µM (inactive) |  |  | 31.4 µM (inactive) |
| O=C(CC(=O)c1ccccc1)C(=O)Nc1ccc(Cl)cc1 | > 100 µM (inactive) | > 100 µM (inactive) |  | > 42.9 µM | > 100 µM (inactive) |  |  | > 100 µM (inactive) | > 100 µM (inactive) | > 39.5 µM (inactive) | 97.9 µM (inactive) | > 100 µM (inactive) | > 100 µM (inactive) | > 100 µM (inactive) | > 100 µM (inactive) | > 64 µM (inactive) | > 100 µM (inactive) | > 100 µM (inactive) | > 100 µM (inactive) |  |
| Cc1ccc(NC(=O)c2nc(S)nc(N)c2-c2ccccc2C)cc1C | > 100 µM (inactive) | > 100 µM (inactive) |  | > 100 µM | > 100 µM (inactive) |  |  | > 100 µM (inactive) | > 100 µM (inactive) | > 100 µM (inactive) | > 100 µM (inactive) | > 100 µM (inactive) |  | > 100 µM (inactive) | > 100 µM (inactive) | > 100 µM (inactive) | > 100 µM (inactive) | > 100 µM (inactive) | > 100 µM (inactive) |  |
| CNC(=O)C(C)C1C(=O)/C(=C(O)/C=C\C(C)=C\C(C)C2OC3(C)OC(C=CC34CO4)C2C)C(=O)N1C1CCC(O)C(C)O1 (configuration not stated) | > 100 µM (inactive) | > 100 µM (inactive) | > 100 µM (inactive) | > 100 µM | > 100 µM (inactive) | > 100 µM (inactive) | > 100 µM (inactive) | > 100 µM (inactive) |  | > 100 µM (inactive) |  | > 100 µM (inactive) |  | > 100 µM (inactive) | > 100 µM (inactive) | > 100 µM (inactive) | > 100 µM (inactive) | > 100 µM (inactive) | > 100 µM (inactive) | > 100 µM (inactive) |
| COc1cc(C2c3cc4c(cc3[C@@H](Nc3ccc([N+](=O)[O-])cc3)C3COC(=O)[C@H]23)OCO4)cc(OC)c1O (some centres not stated) | 0.438 µM (active) | 0.198 µM (active) | 0.362 µM (active) | 2.87 µM | 4.72 µM (inactive) |  | 6.11 µM (inactive) | 0.0171 µM (active) | 0.67 µM (active) | 0.0286 µM (active) | 1.63 µM (inactive) | 2.69 µM (inactive) | 0.466 µM (active) | 4.26 µM (inactive) | 0.586 µM (active) | 1.19 µM (inactive) | 1.52 µM (inactive) | 0.525 µM (active) | 3.84 µM (inactive) | 4.09 µM (inactive) |
| O=C1C(O)=C(CCCc2ccc(Oc3ccccc3)cc2)C(=O)c2ccccc21 | 21.2 µM (inactive) | 18.1 µM (inactive) |  | 4.28 µM | 6.19 µM (inactive) |  |  | 4.19 µM (inactive) | 10.8 µM (inactive) | 10.4 µM (inactive) | 6.49 µM (inactive) | 41.1 µM (inactive) | 7.78 µM (inactive) | 10.2 µM (inactive) | 3.38 µM (inactive) | 24.4 µM (inactive) | 5.92 µM (inactive) | 5.52 µM (inactive) | 17.9 µM (inactive) |  |
| c1ccc(C2N=NN(c3ccccc3)C2N2CCCCC2)cc1 (configuration not stated) | > 100 µM (inactive) | > 100 µM (inactive) |  | > 100 µM | 52.2 µM (inactive) |  |  | > 100 µM (inactive) | > 100 µM (inactive) |  | > 100 µM (inactive) | > 100 µM (inactive) | 33.8 µM (inactive) | > 100 µM (inactive) | > 100 µM (inactive) | 20 µM (inactive) | > 100 µM (inactive) | > 100 µM (inactive) | > 100 µM (inactive) |  |
| O=c1n(CCCN2CCOCC2)nc2n1-c1ccc3ccccc3c1SC2 | 49 µM (inactive) | 45.5 µM (inactive) | 87.9 µM (inactive) | 27.7 µM | > 100 µM (inactive) |  | 49 µM (inactive) | 39.3 µM (inactive) | > 100 µM (inactive) | 30.2 µM (inactive) | 22.3 µM (inactive) | 66.7 µM (inactive) | 19.9 µM (inactive) | 65.8 µM (inactive) | 29.4 µM (inactive) | 47.8 µM (inactive) | 20.6 µM (inactive) | 45.2 µM (inactive) | 36.5 µM (inactive) | 6.17 µM (inactive) |
| O=C1c2ccc3ccccc3c2CCC1N1CCCCC1 (configuration not stated) | 16 µM (inactive) |  | 16.7 µM (inactive) | 20.2 µM | 15.2 µM (inactive) | 16.9 µM (inactive) | 18 µM (inactive) |  | 15.8 µM (inactive) | 22 µM (inactive) | 16.8 µM (inactive) | 19.7 µM (inactive) | 19.3 µM (inactive) | 19.6 µM (inactive) | 17 µM (inactive) | 17.4 µM (inactive) | 15.6 µM (inactive) |  | 18.1 µM (inactive) |  |
